Data on two molecules can be found in patent US8633218B2, “8-azabicyclo[3.2.1]oct-2-ene derivatives and their use as monoamine neurotransmitter re-uptake inhibitors” (Aniona APS, priority 2008, dated 2014).

In general, pIC50 refers to the IC50 on a negative log10 scale, so that one unit is a factor of ten.

Each structure is given as a SMILES string. pIC50: −log10 of the molar value. Where a name gives a salt, the structure may show the parent alone.

Assay type in all cases: biochemical
The test system of experiment [1] is serotonine (5-HT) reuptake in synaptosomes. Kind of experiment: Inhibition of 3H-5-HT reuptake in synaptosomes. The conditions noted are these: read-out: 5-HT-uptake IC50. As to the method: (§1) Compounds were tested for their ability to inhibit the reuptake of the monoamine neurotransmitters dopamine (DA) noradrenaline (NA) and serotonine (5-HT) in synaptosomes as described in WO 97/16451 (NeuroSearch A/S).
(§2) The test values are given as IC50 (the concentration (μM) of the test substance which inhibits the specific binding of ^3H-DA, ^3H-NA, or ^3H-5-HT by 50%).

Experiment [2] relates to dopamine (DA) reuptake in synaptosomes. Kind of experiment: Inhibition of 3H-DA reuptake in synaptosomes. The conditions noted are these: read-out: DA-uptake IC50. As to the method: as §1, §2
Experiment [3] relates to noradrenaline (NA) reuptake in synaptosomes. Kind of experiment: Inhibition of 3H-NA reuptake in synaptosomes. The note with it: read-out: NA-uptake IC50. As to the method:
as §1, §2

For `Oc1ccc2sc(C3=CC4CCC(C3)N4)cc2c1` (stereo not drawn) [Compound 3.1, 2-(8-Aza-bicyclo[3.2.1]oct-2-en-3-yl)-benzo[b]thiophen-5-ol hydrochloric acid salt], the pIC50 in experiment [1] is 9.43; in experiment [2], 7.03; in experiment [3], 8.37.
In the same order, the values of `COc1ccc2sc(C3=CC4CCC(C3)N4)cc2c1` (stereo not drawn) [Compound 2.1, 3-(5-Methoxy-benzo[b]thiophen-2-yl)-8-aza-bicyclo[3.2.1]oct-2-ene hydrochloric acid salt] are 8.60, 6.13 and 7.24.
